Data published in paper PMC6297231 (Nature Communications, 2018).
Like-named read-outs stand apart in the source and are kept apart here. Blank lines part the entries; values can stand above or below the molecule they belong to. Where no end group is shown, it is not given here.

Experiments:
MOLP8 = test: Caspase-3/7 activation assay; format: cell-based; conditions: Homo sapiens, MOLP-8
Procedure: (§1) Cells were plated at 3000 cells/well in 384-well white plates in corresponding cell growth media. […] Caspase-3/7 activation was subsequently determined using a Caspase-Glo 3/7 Reagent (Promega) and viability was assayed using the CellTiter-Glo Reagent (Promega) as described in manufacturer’s instructions. Dose–response curves for caspase-3/7 activation and viability were plotted and analyzed (including EC50 and GI50 determination) using GraphPad Prism.

MV411 = test: Caspase-3/7 activation assay; format: cell-based; conditions: Homo sapiens, MV4-11
Procedure: as §1

H23 = test: Caspase-3/7 activation assay; format: cell-based; conditions: Homo sapiens, NCI-H23
Procedure: as §1

Mcl-1 [1] = target: T1, Mcl-1 (Homo sapiens, UniProt Q07820); test: SPR direct binding assay; design: 6His-tagged Mcl-1 protein (E171-G327) was immobilized using NTA capture-coupling
Target sequence in this assay (Q07820 171-327): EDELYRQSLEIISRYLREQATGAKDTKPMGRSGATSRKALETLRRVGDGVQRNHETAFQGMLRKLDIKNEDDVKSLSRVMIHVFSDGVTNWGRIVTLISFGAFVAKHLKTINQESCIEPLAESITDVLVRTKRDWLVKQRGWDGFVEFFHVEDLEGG
Procedure: A Biacore T200 instrument (GE Healthcare) was used to monitor binding interactions using a direct binding assay format. 6His-tagged Mcl-1 protein (E171-G327) was immobilized using NTA capture-coupling at a flow rate of 10 μL min^-1 and using an immobilization running buffer containing 10 mM HEPES, 300 mM NaCl, 1 mM TCEP, and 0.05% Tween-20 at 25 °C. […] Approximately 300 response units of Mcl-1 protein (2 μg mL^-1 in immobilization running buffer) were immobilized using the ‘aim for’ function in the T200 Control Software (GE Healthcare). Remaining reactive esters were blocked using a 7 min injection of 1 M ethanolamine. Reference flow cells were prepared without protein. All binding measurements were performed in 10 mM Tris, pH 7.5, 300 mM NaCl, 1 mM TCEP, 1% DMSO, and 0.02% Tween-20 at 25 °C at a flow rate of 30 μL min^-1. Buffer was primed through the instrument overnight to stabilize the surface before subsequent assay steps. Prior to kinetic analysis, solvent calibration and double referencing subtractions were made to eliminate bulk refractive index changes, injection noise, and data drift. Affinity and binding kinetic parameters were determined by global fitting to a 1:1-binding model within the Biacore T200 Evaluation Software (GE Healthcare).

Mcl-1 [2] = target: T1, Mcl-1; test: TR-FRET binding assay; design: N-terminal GST-tagged-Mcl-1 protein from Mcl-1 (E171-G327); made in house; host or cells: E. coli
Procedure: Percent inhibition was calculated based upon min (control compound) vs. max (DMSO) according to Eq. (2) and the IC50 was derived the smart fit curve (Genedata screener) of % inhibition vs. concentration. Ki values were calculated from Eq.
Target sequence in this assay (Q07820 171-327): as above

Mcl-1 [3] = target: T1, Mcl-1; test: 2D protein-observed NMR titration (TROSY); format: binding; design: The 6His-TEV-Mcl-1(162–326) construct in a pET vector was expressed in BL21-GOLD cells; 6His-TEV (N, cleaved yes); made in house; host or cells: E. coli BL21-GOLD
Procedure: The 6His-TEV-Mcl-1(162–326) construct in a pET vector was expressed in BL21-GOLD cells and inducted by IPTG. ^15N-labeled GS-Mcl-1 was obtained by growing cells in Isogro-15N (Sigma-Aldrich) media (5 g L^-1) containing 50 µg mL^-1 Kanamycin and 12.5 µg mL^-1 Tetracycline. Expression was induced at OD^600 = 0.8 with 0.1 mM IPTG. Cells were then incubated overnight at 30 °C, harvested by centrifugation and lysed by sonication in buffer H (40 mM Hepes pH 8.0, 300 mM NaCl, 10 mM imidazole, 1 mM TCEP), supplemented with 0.3 mg mL^-1 lysozyme, 2.5 U mL^-1 benzonase, and EDTA-free protease inhibitors (Roche). The sample was centrifuged and supernatant collected and incubated with Ni-NTA resin (60 min at 4 °C). […]
NMR spectra were recorded at 298 K on a Bruker Avance 600 MHz spectrometer running Topspin 2.3 equipped with a 5 mm TCI Cryoprobe with Z-axis gradients. […] Binding was detected by ^1H–^15N 2D Transverse relaxation optimized spectroscopy (TROSY) spectra of the protein (F2 × F1) 2048 × 50 complex pairs (in Echo-Antiecho mode), 12019 × 1800 Hz sweep width, 85.2 ms × 27.8 ms acquisition times. Compound titration was recorded from fresh compound stock in DMSO-d6, and spectra were recorded at ligand concentrations of 0.04, 0.08, 0.16, 0.32, 0.63, and 1.24 mM. […]
Target sequence in this assay (Q07820 162-326): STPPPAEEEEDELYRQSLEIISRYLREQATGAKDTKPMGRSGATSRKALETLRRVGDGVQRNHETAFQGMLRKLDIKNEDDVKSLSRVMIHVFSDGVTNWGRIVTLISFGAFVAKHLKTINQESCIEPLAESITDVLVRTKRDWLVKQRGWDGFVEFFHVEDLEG

[4] = target: T2, N-terminal GST-tagged-Mcl-1 protein from Mcl-1 (E171-G327) (human, UniProt Q07820 171-327); test: AlphaScreen or HTRF; TR-FRET: GST-tagged protein with Eu-labeled anti-GST antibody and HyLite Fluor 647-labeled peptide; 384-well plates, 24 °C, 120-180 min; how the peptide Kd was determined is not told; conditions: both partners purified
T2 construct: Mcl-1, residues E171-G327; also called GST-Mcl-1; not shown: GST, N-terminal, kept
T2 sequence (Q07820 171-327): as the sequence (Q07820 171-327) above

[5] = target: T3, N-Terminal 6His-tagged Bfl-1 protein from Bfl-1 (M1-K151) (UniProt Q16548 1-151); test: AlphaScreen or HTRF; TR-FRET: His-tagged protein with Eu-labeled anti-His antibody and HyLite Fluor 647-labeled peptide; 384-well plates, 24 °C, 120-180 min; how the peptide Kd was determined is not told; conditions: both partners purified
T3 construct: Bfl-1 (Bfl-1/A1), residues M1-K151; also called His-Bfl-1; source: E. coli, purified (Ni-NTA resin, size-exclusion chromatography); not shown: 6His, N-terminal, kept
T3 sequence (looked up): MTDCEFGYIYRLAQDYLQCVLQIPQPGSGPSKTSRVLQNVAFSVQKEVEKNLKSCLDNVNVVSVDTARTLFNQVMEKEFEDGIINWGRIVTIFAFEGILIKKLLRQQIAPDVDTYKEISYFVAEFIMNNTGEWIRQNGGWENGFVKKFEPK

[6] = target: T4, N-terminal GST-tagged Bcl-xL protein from Bcl-xL (1-209) (UniProt Q07817-1 1-209); test: AlphaScreen or HTRF; TR-FRET: GST-tagged protein with Eu-labeled anti-GST antibody and HyLite Fluor 647-labeled peptide; 384-well plates, 24 °C, 120-180 min; how the peptide Kd was determined is not told; conditions: both partners purified
T4 construct: Bcl-xL, residues 1-209; also called GST-Bcl-xl; not shown: GST, N-terminal, kept
T4 sequence (Q07817 1-209): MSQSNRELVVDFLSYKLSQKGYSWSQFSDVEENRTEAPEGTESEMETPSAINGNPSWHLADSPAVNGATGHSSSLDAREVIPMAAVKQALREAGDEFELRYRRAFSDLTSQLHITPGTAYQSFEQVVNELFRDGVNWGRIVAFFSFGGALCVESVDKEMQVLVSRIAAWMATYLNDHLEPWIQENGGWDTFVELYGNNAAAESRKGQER

EC50 (MOLP8; caspase activation, Mcl-1-dependent cell line, read-out: MOLP-8, EC50): > 31.5 µM
EC50 (MOLP8; mean of log transformed data, read-out: MOLP-8 caspase pEC50 (converted)): > 31.6 µM
EC50 (MV411; caspase activation, Mcl-1-dependent cell line, read-out: MV4-11, EC50): > 31.5 µM
EC50 (MV411; mean of log transformed data, read-out: MV4-11 caspase pEC50 (converted)): > 31.6 µM
EC50 (H23; caspase activation, Mcl-1-dependent cell line, read-out: NCI-H23, EC50): > 31.5 µM
EC50 (H23; mean of log transformed data, read-out: NCI-H23 caspase pEC50 (converted)): > 31.6 µM
Kd (Mcl-1 [1]; mean of log transformed data, read-out: MCL1 SPR pKd (converted)): 646 nM
Kd (Mcl-1 [1]; read-out: Mcl-1 SPR, Kd): 650 nM
IC50 (Mcl-1 [2]; mean of log transformed data, read-out: MCL1 FRET pIC50 (converted)): 288 nM
IC50 (Mcl-1 [2]; read-out: Mcl-1 FRET, IC50): 290 nM
Kd (Mcl-1 [3]; fast exchange shifts, second weaker binding event, read-out: Kd, binding event 2): 141 ± 8 µM
Kd (Mcl-1 [3]; slow exchange binding, read-out: Kd, binding event 1): < 5 µM
Molecule: Cc1nn(C)c(C)c1-c1cccc2c(CCCOc3cccc4ccccc34)c(C(=O)O)[nH]c12 [Compound 2, reference compound]

Kd [4]: 1.5 nM
Kd [5]: 10 nM
B1: HyLite Fluor 647-labeled Bim peptide C (Hilyte647 C2 Maleimide)-WIAQELRRIGDEFN (peptide)
peptide: C(HiLyte Fluor 647 C2 maleimide)WIAQELRRIGDEFN
notes: added N-terminal cysteine that carries the dye; Bim BH3 stretch; also called Hylite Bim peptide

Kd [6]: 10 nM
B2: HyLite Fluor 647-labeled BAK peptide C(Hilyte647 C2 Maleimide)-GGGQVGRQLAIIGDDINR (peptide)
peptide: C(HiLyte Fluor 647 C2 maleimide)GGGQVGRQLAIIGDDINR
notes: added N-terminal cysteine that carries the dye, and glycine spacer; Bak BH3 stretch; also called Hylite Bak peptide
